A word on the Ki: it is the dissociation constant of the complex between target and ligand, obtained from inhibition or displacement. A low value points to higher affinity.

The results in this text go back to BindingDB's records for PubMed 1836757 (University of Heidelberg, 1991).

The target of this test is 5-hydroxytryptamine receptor 1A/1B/1D/2C (Homo sapiens, UniProt P08908+P28221+P28222+P28335).
5-hydroxytryptamine receptor 1A/1B/1D/2C, sequence (P08908 whole entry): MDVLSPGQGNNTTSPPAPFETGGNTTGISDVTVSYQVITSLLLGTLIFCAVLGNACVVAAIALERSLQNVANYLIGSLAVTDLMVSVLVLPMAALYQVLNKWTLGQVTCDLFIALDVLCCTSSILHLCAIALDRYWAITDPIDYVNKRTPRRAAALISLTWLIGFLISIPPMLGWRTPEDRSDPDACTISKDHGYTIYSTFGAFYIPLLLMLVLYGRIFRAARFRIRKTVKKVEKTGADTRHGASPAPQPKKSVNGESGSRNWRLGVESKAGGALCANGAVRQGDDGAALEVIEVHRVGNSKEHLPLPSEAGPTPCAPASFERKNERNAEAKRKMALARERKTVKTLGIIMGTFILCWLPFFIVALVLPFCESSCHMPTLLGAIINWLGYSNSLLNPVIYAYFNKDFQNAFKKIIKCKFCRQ
5-hydroxytryptamine receptor 1A/1B/1D/2C, sequence (P28222 whole entry): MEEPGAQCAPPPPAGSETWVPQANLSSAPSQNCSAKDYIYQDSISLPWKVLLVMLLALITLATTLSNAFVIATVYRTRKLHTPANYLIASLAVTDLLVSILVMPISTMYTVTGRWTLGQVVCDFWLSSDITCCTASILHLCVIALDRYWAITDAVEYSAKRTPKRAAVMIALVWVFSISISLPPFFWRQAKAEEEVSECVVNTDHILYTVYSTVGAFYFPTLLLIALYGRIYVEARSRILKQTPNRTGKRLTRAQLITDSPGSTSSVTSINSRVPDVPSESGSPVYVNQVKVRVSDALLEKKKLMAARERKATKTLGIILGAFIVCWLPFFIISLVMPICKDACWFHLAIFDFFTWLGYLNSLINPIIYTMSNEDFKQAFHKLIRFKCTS
5-hydroxytryptamine receptor 1A/1B/1D/2C, sequence (P28221 whole entry): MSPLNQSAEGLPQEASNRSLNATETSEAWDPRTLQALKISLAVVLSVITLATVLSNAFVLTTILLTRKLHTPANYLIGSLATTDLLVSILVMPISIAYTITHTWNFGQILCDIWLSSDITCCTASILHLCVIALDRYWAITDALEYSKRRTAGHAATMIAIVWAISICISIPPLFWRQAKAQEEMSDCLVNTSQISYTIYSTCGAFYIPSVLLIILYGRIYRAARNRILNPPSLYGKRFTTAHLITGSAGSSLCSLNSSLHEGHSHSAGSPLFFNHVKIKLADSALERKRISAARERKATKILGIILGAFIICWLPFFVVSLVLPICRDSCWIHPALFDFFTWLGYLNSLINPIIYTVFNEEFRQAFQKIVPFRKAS
5-hydroxytryptamine receptor 1A/1B/1D/2C, sequence (P28335 whole entry): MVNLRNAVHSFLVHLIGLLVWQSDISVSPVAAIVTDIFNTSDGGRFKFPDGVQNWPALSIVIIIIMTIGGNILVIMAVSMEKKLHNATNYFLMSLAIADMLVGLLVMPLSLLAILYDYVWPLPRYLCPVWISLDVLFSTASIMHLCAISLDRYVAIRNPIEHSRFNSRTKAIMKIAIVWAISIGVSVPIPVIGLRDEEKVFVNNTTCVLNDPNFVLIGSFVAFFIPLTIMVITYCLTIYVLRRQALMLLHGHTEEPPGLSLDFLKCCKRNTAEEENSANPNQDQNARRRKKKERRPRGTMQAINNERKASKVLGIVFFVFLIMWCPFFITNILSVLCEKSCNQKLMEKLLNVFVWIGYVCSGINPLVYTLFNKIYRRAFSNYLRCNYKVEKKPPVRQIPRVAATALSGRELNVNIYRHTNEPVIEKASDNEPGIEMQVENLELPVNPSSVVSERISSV

On to `CC[C@@H](CO)NC(=O)[C@@H]1C=C2c3cccc4c3c(cn4C)C[C@H]2N(C)C1`, for which the affinity corresponds to a Ki of 0.436 µM.
The result for `CN1C2CCC1CC(OC(=O)c1c[nH]c3ccccc13)C2` (configuration not stated) reads over 10 µM.
